Laboratory results from US20240166658A1, “PORPHYRIN DERIVATIVES AND USES THEREOF” (University of Tasmania, priority 2021, published 2024).

How the values were obtained:
[1] = Colorimetric matching of mixed PFCA samples, low concentration
Method: In the “low” PFCA concentration experiment, the RGB response values had the greatest rate of change from 0-40 ppb PFOA and appeared to level out between 40-80 ppb PFOA. In that instance, the regression was fit for a host : guest ratio of 0-0.8. To probe the sensor's response to a mixture of PFCAs, samples containing combinations of PFHxA, PFHpA, and PFDA in dichloromethane (7-28 ppb) were prepared and the RGB responses were collected. The PFCA concentrations for the samples were predicted using the PFOA regression (y=0.0591 ln(x)+0.037, R^2=0.9771).
The lowest concentration PFCA sample (7 ppb) was predicted to be ca. 11 ppb (58% error) from the PFOA regression, whilst the higher concentration mixed PFCA samples (14.1 and 28.8 ppb) were predicted to be ca. 16 and 23 ppb (17 and 18% error respectively). Thus, host (12) may be coupled with a phone camera to estimate mixed PFCA concentrations from RGB data with <20% error, or used visually for threshold detection of total PFCA concentrations above 10 ppb.

[2] = Colorimetric matching of a PFCA sample, organic; conditions: CIE76
Method: To probe the sensitivity of this technique visually, a colour chart based on the response of host (12) to known concentrations of PFOA was tested against another PFCA. The PFCA was chosen to be PFHxA, as PFOA was used for the calibration process. Samples of PFHxA (4 ppm) were prepared and combined with host (12). The average colour from triplicate experiments was compared to a calibration chart. The RGB values for host (12) were collected at six concentrations of PFOA. To make a direct comparison to the 4 ppm PFHxA sample, a colour chart was generated by fitting four colour points between the measured values for 0 and 5 ppm of PFOA. The generated RGB value for the 4 ppm PFOA was then compared to the measured RGB value for the 4 ppm PFHxA sample. […] The 3 and 5 ppm PFOA colours had ΔE values of 10.3 and 9.5 respectively, making the 4 ppm colour the most suitable match.

[3] = GenX vapour test with host-doped filter paper; conditions: for colour of host-doped paper in tube headspace: one hour
Method: A solution of medium chain host (9) (2.20×10^−5 M) in dichloromethane was prepared. Whatman 4 filter papers were soaked/dipped in the host solution and left to air dry on a watch glass. An aqueous solution of GenX™ (1 ppm, 3.03×10^−6 M) was prepared in a glass volumetric flask (1 L). The volumetric flask stopper was removed, and the dried host-doped paper was laid on top the opening.
An aqueous solution of GenX™ (1 ppm, 3.03×10^−6 M) was prepared in a glass volumetric flask (1 L). A solution of medium chain host (2.20×10^−5 M) in dichloromethane was prepared. Whatman 4 filter papers were soaked/dipped in the host solution and left to air dry on a watch glass. The filter papers were cut into strips and adhered to the lids of HDPP tubes. Aqueous samples of GenX™ were diluted to 1 ppm, 1 ppb and 1 ppt and poured into the HDPP tubes. The caps were immediately replaced, and the tubes were left for an hour.

[4] = UV-Vis host-guest titration, association constant; type: binding; conditions: host (9) in dichloromethane; triplicate, TBA salt and acid; Bindfit
Method: (§1) Path length of the quartz cell was 1 cm. For UV-vis titrations, a stock solution of host was prepared (2.2×10^−3 M) in dichloromethane (DCM) and serially diluted to the required concentrations. Working solutions of tetrabutylammonium (TBA) anion salts or guest molecules were prepared in the same manner Host−guest titrations used solutions of guest prepared in the working concentration of host solution, according to the procedure of Thordarson, 2011.
(§2) UV-vis spectroscopic host−guest titrations were performed in accordance with the methodologies of Thordarson, 2011. Solutions of host in dichloromethane were prepared. Solutions of guest were then prepared in the host solution. Aliquots of guest in host solution were added to host solution and sequentially analysed until a known molar equivalent of guest was added. The amount of guest added per aliquot was ascertained by a preliminary screening experiment; strong association constants required smaller molar equivalents so more information could be collected. By way of example, host (9) responded to 0.1 molar equivalent of PFBA strongly, so an addition of 1 molar equivalent of PFBA would result in a loss of information. The inverse is true for weaker binding interactions. […]
(§3) A host solution of host (9) in dichloromethane was monitored using UV-Vis analysis as 0.5-10 equivalents of each PFAS was added. […]

[5] = UV-Vis host-guest titration, association constant; type: binding; conditions: host (9) in dichloromethane; triplicate, TBA salt and acid; Bindfit; remark: listed apart in the source
Method: as §1, §2, §3

[6] = GenX, water and HDPP tube experiment (biphasic)
Method: A solution of medium chain amide host (2.04×10^−5 M) in dichloromethane was added to an aqueous solution of GenX™ (5 ppm, 1.51×10^−5 M 50 mL) in a volumetric flask. […] Both phases were then transferred via pouring to a HDPP tube. The green colour persisted initially but began to reduce with time.

[7] = Filter paper tests; conditions: aqueous PFOA in the <5 ppm range, dipped or dropped
Method: Sensor molecule (9) was dissolved in dichloromethane and filter papers were soaked in the solution. The papers were removed and dried by evaporation. The paper was then dipped into aqueous solutions of PFOA or aqueous solutions were dropped onto the paper. […] The aqueous solutions of PFOA tested were in the <5 ppm range.

[8] = UV-Vis host-guest titration, association constant; type: binding; conditions: host (9) in dichloromethane; triplicate, TBA salt and acid; Bindfit; remark: listed apart in the source
Method: as §1, §2, §3

Structure (SMILES) | average ΔE of mixed PFCA samples vs host solution ([1]; 7-28 ppb) | concentration predicted from PFOA regression ([1]; 7 ppb PFCA sample) | concentration predicted from PFOA regression ([1]; 14.1 ppb mixed PFCA sample) | concentration predicted from PFOA regression ([1]; 28.8 ppb mixed PFCA sample) [ppb] | ΔE (Host − PFCA) ([1]; PFCAs 7 ppb) | ΔE (Host − PFCA) ([1]; PFCAs 14 ppb) | ΔE (Host − PFCA) ([1]; PFCAs 28 ppb) | ΔE, PFOA chart colour vs 4 ppm PFHxA sample ([2]; 3 ppm PFOA colour) | ΔE, PFOA chart colour vs 4 ppm PFHxA sample ([2]; 4 ppm PFOA colour) | ΔE, PFOA chart colour vs 4 ppm PFHxA sample ([2]; 5 ppm PFOA colour) | colour change of host-doped paper over aqueous GenX ([3]; GenX 1 ppm in water, paper on flask opening) | colour of host-doped paper in tube headspace ([3]; aqueous GenX 1 ppb) | colour of host-doped paper in tube headspace ([3]; aqueous GenX 1 ppm) | K value (averaged association constant Ka) [4] | K value (averaged association constant Ka) [5] | colour of host solution after transfer to HDPP tube ([6]; after 24 hours) | colour of host solution ([6]; host 2.04×10^−5 M in dichloromethane added to aqueous GenX 5 ppm) | colour change of host-soaked filter paper [7] | K value (averaged association constant Ka) [8]
O=C(Nc1ccccc1-c1c2nc(c(-c3ccccc3NC(=O)C(F)(F)C(F)(F)C(F)(F)C(F)(F)C(F)(F)C(F)(F)C(F)(F)C(F)(F)C(F)(F)C(F)(F)C(F)(F)F)c3ccc([nH]3)c(-c3ccccc3NC(=O)C(F)(F)C(F)(F)C(F)(F)C(F)(F)C(F)(F)C(F)(F)C(F)(F)C(F)(F)C(F)(F)C(F)(F)C(F)(F)F)c3nc(c(-c4ccccc4NC(=O)C(F)(F)C(F)(F)C(F)(F)C(F)(F)C(F)(F)C(F)(F)C(F)(F)C(F)(F)C(F)(F)C(F)(F)C(F)(F)F)c4ccc1[nH]4)C=C3)C=C2)C(F)(F)C(F)(F)C(F)(F)C(F)(F)C(F)(F)C(F)(F)C(F)(F)C(F)(F)C(F)(F)C(F)(F)C(F)(F)F [host (12), α,α,α,α-5,10,15,20-tetrakis(2-(tricosafluorododecanoylamino)phenyl) porphyrin] | > 10 | ca. 11 ppb | ca. 16 ppb | ~23 | 11 | 11 | 12 | 10.3 | 7.3 | 9.5 | – | – | – | – | – | – | – | – | –
O=C(Nc1ccccc1-c1c2nc(c(-c3ccccc3NC(=O)C(F)(F)C(F)(F)C(F)(F)C(F)(F)C(F)(F)C(F)(F)C(F)(F)F)c3ccc([nH]3)c(-c3ccccc3NC(=O)C(F)(F)C(F)(F)C(F)(F)C(F)(F)C(F)(F)C(F)(F)C(F)(F)F)c3nc(c(-c4ccccc4NC(=O)C(F)(F)C(F)(F)C(F)(F)C(F)(F)C(F)(F)C(F)(F)C(F)(F)F)c4ccc1[nH]4)C=C3)C=C2)C(F)(F)C(F)(F)C(F)(F)C(F)(F)C(F)(F)C(F)(F)C(F)(F)F [host (9), α,α,α,α-5,10,15,20-tetrakis(2-(pentadecafluorooctanoylamino)phenyl)porphyrin] | – | – | – | – | – | – | – | – | – | – | A colour change developed immediately | A green colour was visible | A green colour was visible | 392106 | 6585 | significant reduction in the intensity of the green colour | immediately became a vibrant green colour | A colour change was discernible | 15272
